US20180362921A1, “EXTRACTION AND PROCESS FOR ACTIVE THYLAKOID MEMBRANES” (GROUPE SANTÉ DEVONIAN INC., priority 2015, published 2018)
pIC50: −log10 of the molar value. Read-outs that look alike come from different tables or passages of the source.

Target: T1, PSII reaction centers of thylakoid extract (Spinacia oleracea, UniProt P69560)
T1 construct: both lyophilized thylakoid extracts were resuspended in: Tris-HCl 50 mM pH 7.5; sorbitol 330 mM; from tissue; host or cells: plant thylakoid membrane extract (lyophilized, rehydrated)
Experiment: Inhibition of Fv/Fm (photosynthetic efficiency) of thylakoid extract by atrazine
Assay type: biochemical, Spinacia oleracea L.
Procedure: Each re-suspended extract was dark-incubated for 15 min with the appropriate atrazine concentration for 15 minutes.
Absorbed light was measured with a FMS1 Hansatech Instrument (Schreiber et al., 1986; lab based modulated fluorescence); under excitation light beam at 470 nm. In dark adapted condition, the following fluorescence parameters can be obtained or calculated: • Fo: minimal fluorescence when PSII reaction centers are in the fully oxidized state. It is obtained at the beginning of fluorescence measurement when only the modulating beam is illuminated. • Fm: obtained with an intense saturating pulse (2 000 μmol photons m^2/s) allowing maxi mum PSII fluorescence emission. • Fv: variable fluorescence is obtained by the difference between Fm and Fo and corresponds to maximum capacity for photochemical energy quenching.
Fv/Fm: this ratio is proportional to quantum efficiency of PSII reaction centers (Butker 1977, 1978) and represents a correlation between the chlorophyll fluorescence and the photochemical reactions (for instance oxygen evolution).
Any molecule affecting the photosystems will modify either Fo or Fm which modification necessarily disrupts (increases or decreases) the photosynthetic efficiency. […]

## CCNc1nc(Cl)nc(NC(C)C)n1 [atrazine]
IC50 (atrazine concentration inhibiting 50% of the efficiency parameter), extract after 7 days at 20° C., 5 μg/mL chlorophyll, 15 min dark incubation
  pIC50: 6.94
Several batches of thylakoid extract, 95% confidence, FIG. 4, read-out: IC50 of an accepted lot (within 2σ of the mean IC50)
  pIC50: 6.66 to 7.12
